# Results from patent publication US6949536B2, “Sulfonylbenzene compounds as anti-inflammatory/analgesic agents” (Pfizer, Inc., priority 1998, dated 2005).
# Structures can show the parent of a compound that is named as a salt.
row,SMILES,melting point
1,"Cc1ccc(-c2ccc(S(C)(=O)=O)cc2)n1-c1ccc(-c2cccs2)cc1 [Example 45, 2-Methyl-5-[4-(methylsulfonyl)phenyl]-1-[4-(2-thienyl]phenyl]-1H-pyrrole]",185 to 186 °C
2,"Cc1cc(S(C)(=O)=O)ccc1-n1nc(C(F)(F)F)cc1-c1ccc(-c2ccco2)cc1 (as salt: hydrochloride) [Example 142, 5-[4-(2-Furyl)phenyl]-1-[4-(methylsulfonyl)-2-methylphenyl]-3-trifluoromethyl-1H-pyrazole]",205 °C
3,"CS(=O)(=O)c1ccc(-n2nc(C(F)(F)F)cc2-c2ccc(-c3cscn3)c(Cl)c2)cc1 (as salt: hydrochloride) [Example 119, 4-{2-Chloro-4-[1-[4-(methylsulfonyl)phenyl]-3-(trifluoromethyl)-1H-pyrazol-5-yl]phenyl}-1,3-thiazole]",128 to 130 °C
4,"Cc1cc(-c2cscn2)ccc1-c1cc(C(F)(F)F)nn1-c1ccc(S(C)(=O)=O)c(F)c1 (as salt: methanesulfonate) [Example 187, 1-[3-Fluoro4-(methylsulfonyl)phenyl]-5-[2-methyl-4-(4-thiazolyl)phenyl]-3-trifluoromethyl-1H-pyrazole]",131.9 °C
5,"CS(=O)(=O)c1ccc(-n2nc(C(F)(F)F)cc2-c2ccc(-c3ccsc3)cc2)cc1F [Example 87, 1-[3-Fluoro-4-(methylsulfonyl)phenyl]-5-[4-(3-thienyl)phenyl]-3-(trifluoromethyl)-1H-pyrazole]",72 to 74 °C
6,"CS(=O)(=O)c1ccc(-n2nccc2-c2ccc(-c3ccco3)cc2)cc1F [Example 162, 1-[3-Fluoro-4-(methylsulfonyl)phenyl]-5-[4-(2-furyl)phenyl]-1H-pyrazole]",155 to 156 °C
7,"Cc1cc(-c2cc(C(F)(F)F)nn2-c2ccc(S(C)(=O)=O)cc2)ccc1-c1cocn1 (as salt: hydrochloride) [Example 112, 4-{2-Methyl-4-[1-[4-(methylsulfonyl)phenyl]-3-(trifluoromethyl)-1H-pyrazol-5-yl]phenyl}-1,3-oxazole]",148 to 150 °C
8,"Cc1cc(-c2nc(C(F)(F)F)cn2-c2ccc(S(C)(=O)=O)c(F)c2)ccc1-c1cscn1 [Example 178, 1-[3-Fluoro-4-(methylsulfonyl)phenyl]-2-[3-methyl-4-(4-thiazolyl)phenyl]-4-trifluoromethyl-1H-imidazole]",197 to 198 °C
9,"Cc1cc(-c2cc(C(F)(F)F)nn2-c2ccc(S(C)(=O)=O)cc2)ccc1-c1cscn1 (as salt: hydrochloride) [Example 125, 4-{2-Methyl-4-[1-[4-(methylsulfonyl)phenyl]-3-(trifluoromethyl)-1H-pyrazol-5-yl]phenyl}-1,3-thiazole]",140 to 142 °C
10,"Cc1nc(-c2ccc(-c3cc(C(F)(F)F)nn3-c3ccc(S(C)(=O)=O)c(F)c3)cc2)cs1 [Example 102, 4-{4-[1-[3-Fluoro-4-(methylsulfonyl)phenyl]-3-(trifluoromethyl)-1H-pyrazol-5-yl]phenyl}-2-methyl-1,3-thiazole]",139 to 141 °C
11,"CS(=O)(=O)c1ccc(-n2nc(C(F)(F)F)cc2-c2ccc(-c3cscn3)c(Cl)c2)cc1F [Example 109, 4-{2-Chloro-4-[1-[3-fluoro-4-(methylsulfonyl)phenyl]-3-(trifluoromethyl)-1H-pyrazol-5-yl]phenyl}-1,3-thiazole]",108 to 110 °C
12,"CS(=O)(=O)c1ccc(-n2cc(C(F)(F)F)nc2-c2ccc(-c3ccco3)cc2)cc1 [Example 53, 2-[4-(2-Furyl)phenyl]-1-[4-(methylsulfonyl)phenyl]-4-(trifluoromethyl)-1H-imidazole]",82 to 84 °C
13,"Cc1noc(-c2ccc(S(C)(=O)=O)cc2)c1-c1ccc(-c2cscn2)cc1 [Example 191, 3-Methyl-5-[4-(methylsulfonyl)phenyl]-4-[4-(1,3-thiazol-4-yl)phenyl]isoxazole]",119 °C
14,"COc1cc(-n2nc(C(F)(F)F)cc2-c2ccc(-c3ccco3)cc2)ccc1S(C)(=O)=O (as salt: hydrochloride) [Example 136, 5-[4-(2-Furyl)phenyl]-1-[3-methoxy-4-(methylsulfonyl)phenyl]-3-trifluoromethyl-1H-pyrazole]",138.9 °C
15,"CS(=O)(=O)c1ccc(C2=C(c3ccc(-c4cscn4)cc3)C(=O)OC2)cc1 [Example 182, 4-[4-(Methylsulfonyl)phenyl]-3-[4-(1,3-thiazol-4-yl)phenyl]-2(5H)-furanone]",236.8 °C
16,"CS(=O)(=O)c1ccc(C2=C(c3ccc(-c4ccoc4)cc3)C(=O)OC2)cc1 [Example 34, 3-[4-(3-Furyl)phenyl]-4-[4-(methylsulfonyl)phenyl]-2-(5H)-furanone]",188 to 190 °C
17,"CS(=O)(=O)c1ccc(-n2nc(C(F)(F)F)cc2-c2ccc(-c3cccs3)cc2)cc1F [Example 86, 1-[3-Fluoro-4-(methylsulfonyl)phenyl]-5-[4-(2-thienyl)phenyl]-3-(trifluoromethyl)-1H-pyrazole]",75 to 76 °C
18,"Cc1onc(-c2ccc(-c3cscn3)cc2)c1-c1ccc(S(N)(=O)=O)cc1 [Example 171, 4-{5-Methyl-3-[4-(1,3-thiazol-4-yl)phenyl]-4-isoxazolyl}benzenesulfonamide]",112 to 115 °C

row,SMILES,melting point
1,"CS(=O)(=O)c1ccc(C2=C(c3ccc(-c4cccs4)cc3)C(=O)OC2)cc1 [Example 33, 3-[4-(2-Thienyl)phenyl]-4-[4-(methylsulfonyl)phenyl]-2-(5H)-furanone]",198 to 201 °C
2,"Cc1ccc(-c2ccc(S(C)(=O)=O)c(F)c2)n1-c1ccc(-c2ccco2)cc1 [Example 35, 5-[3-Fluoro-4-(methylsulfonyl)phenyl]-1-[4-(2-furyl)phenyl]-2-methyl-1H-pyrrole]",179 to 182 °C
3,"Cc1ccc(-c2ccc(S(C)(=O)=O)cc2)n1-c1ccc(-c2ccoc2)c(Cl)c1 [Example 41, 1-[3-Chloro-4-(3-furyl)phenyl]-2-methyl-5-[4-(methylsulfonyl)phenyl]-1H-pyrrole]",165 to 168 °C
4,"Cc1cc(-n2c(C)ccc2-c2ccc(S(C)(=O)=O)cc2)ccc1-c1ccoc1 [Example 39, 1-[4-(3-Furyl)-3-methylphenyl]-2-methyl-5-[4-(methylsulfonyl)phenyl]-1H-pyrrole]",69 to 75 °C
5,"CONC(=O)c1cc(-c2ccc(-c3ccco3)cc2)n(-c2ccc(S(C)(=O)=O)c(F)c2)n1 (as salt: hydrochloride) [Example 134, N-Methoxy-1-[3-fluoro-4-(methylsulfonyl)phenyl]-5-[4-(2-furyl)phenyl]-1H-pyrazole-3-carboxamide]",126 to 128 °C
6,"Cc1onc(-c2ccc(-c3cscn3)cc2)c1-c1ccc(S(N)(=O)=O)c(F)c1 [Example 172, 2-Fluoro-4-{5-methyl-3-[4-(1,3-thiazol-4-yl)phenyl]-4-isoxazolyl}benzenesulfonamide]",216 °C
7,"Cc1cc(S(N)(=O)=O)ccc1-n1nc(C(F)(F)F)cc1-c1ccc(-c2ccco2)cc1 (as salt: hydrochloride) [Example 145, 4-[5-[4-(2-Furyl)phenyl]-3-(trifluoromethyl)-1H-pyrazol-1-yl]-3-methylbenzenesulfonamide]",87 to 89 °C
8,"Cc1nc(-c2ccc(-c3cscn3)cc2)c(-c2ccc(S(C)(=O)=O)c(F)c2)o1 [Example 169, 5-[3-Fluoro-4-(methylsulfonyl)phenyl]-2-methyl-4-[4-(1,3-thiazol-4-yl)phenyl]-1,3-oxazole]",196 to 197 °C
9,"CS(=O)(=O)c1ccc(-n2nc(C(F)(F)F)cc2-c2ccc(-c3ccco3)c(Cl)c2)cc1 (as salt: hydrochloride) [Example 71, 1-[4-(Methylsulfonyl)phenyl]-5-[3-chloro-4-(2-furyl)phenyl]-3-(trifluoromethyl)-1H-pyrazole]",143 to 145 °C
10,"COC(=O)c1cc(-c2ccc(-c3nccs3)cc2)n(-c2ccc(S(N)(=O)=O)cc2)n1 [Example 88, Methyl 1-(4-sulfamoylphenyl)-5-[4-(2-thiazolyl)phenyl]-1H-pyrazole-3-carboxylate]",204 to 206 °C
11,"COc1cc(-c2cc(C(F)(F)F)nn2-c2ccc(S(C)(=O)=O)cc2)ccc1-c1cscn1 (as salt: hydrochloride) [Example 120, 4-{2-Methoxy-4-[1-[4-(methylsulfonyl)phenyl]-3-(trifluoromethyl)-1H-pyrazol-5-yl]phenyl}-1,3-thiazole]",164 to 166 °C
12,"Cc1ccc(-c2ccc(S(C)(=O)=O)cc2)n1-c1ccc(-c2ccoc2)cc1 [Example 38, 5-[4-(Methylsulfonyl)phenyl]-1-[4-(3-furyl)phenyl]-2-methyl-1H-pyrrole]",200 to 202 °C
13,"NS(=O)(=O)c1ccc(-n2nc(C(F)(F)F)cc2-c2ccc(-c3ccco3)c(Cl)c2)cc1F [Example 138, 4-[5-[3-Chloro-4-(2-furyl)phenyl]-3-(trifluoromethyl)-1H-pyrazol-1-yl]-2-fluorobenzenesulfonamide]",171.8 °C
14,"Cc1onc(-c2ccc(-c3cscn3)cc2)c1-c1ccc(S(C)(=O)=O)c(F)c1 [Example 168, 4-[3-Fluoro-4-(methylsulfonyl)phenyl]-5-methyl-3-[4-(1,3-thiazol-4-yl)phenyl]isoxazole]",130 °C
15,"Cc1nc(-c2ccc(-c3cscn3)c(C)c2)c(-c2ccc(S(C)(=O)=O)c(F)c2)o1 [Example 173, 5-[3-Fluoro-4-(methylsulfonyl)phenyl]-2-methyl-4-[3-methyl-4-(1,3-thiazol-4-yl)phenyl]-1,3-oxazole]",177 to 178 °C
16,"Cc1nc(-c2ccc(-c3ccco3)cc2)c(-c2ccc(S(C)(=O)=O)cc2)o1 [Example 51, 4-[4-(2-Furyl)phenyl]-2-methyl-5-[4-(methylsulfonyl)phenyl]oxazole]",143 to 144 °C
17,"CS(=O)(=O)c1ccc(-n2nc(C(=O)O)cc2-c2ccc(-c3ccco3)cc2)cc1F [Example 128, 1-[3-Fluoro-4-(methylsulfonyl)phenyl]-5-[4-(2-furyl)phenyl]-1H-pyrazole-3-carboxylic Acid]",171.5 to 173 °C
18,"CS(=O)(=O)c1ccc(-n2nc(C(F)(F)F)cc2-c2ccc(-n3ccnc3)cc2)cc1 [Example 66, 5-[4-(1-Imidazolyl)phenyl]-1-[4-(methylsulfonyl)phenyl]-3-trifluoromethyl-1H-pyrazol]",183 to 184 °C
